Results taken from publication PMC12856912, “Structure-Guided Semisynthesis of Blasticidin S–Amicetin Chimeras as Selective Ribosome Inhibitors” (Journal of the American Chemical Society, 2026).
In brackets after ≈: the same amount, converted by molar mass. Where two headings read alike, the source gives them in different places.

Key:
MRSA ATCC 43300 = experiment: Antibacterial MIC assay, serial dilution; assay type: cell-based, Staphylococcus aureus; settings: for Selectivity index (CC50/MIC) MRSA 43300: CC50 Vero cells / MIC; for MIC: Staphylococcus aureus, read-out: MIC MRSA ATCC 43300
How it was run: (§1)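 Broth microdilution in cation-adjusted Mueller-Hinton broth with an inoculum at OD600 0.004 and final compound levels of 128–1 μg/mL. Plates ran 16–18 h at 37 °C, or 24 h for VRE. OD600 was normalized to controls, and MIC = lowest concentration inhibiting >90% growth; two biological replicates were run in duplicate.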

S. aureus ΔNorA = experiment: Antibacterial MIC assay, serial dilution; assay type: cell-based, Staphylococcus aureus; settings: for Selectivity index (CC50/MIC) S. aureus ΔNorA: CC50 Vero cells / MIC; for MIC: Staphylococcus aureus, read-out: MIC S. aureus ∆NorA
How it was run: as §1

S. aureus ATCC 6538P = experiment: Antibacterial MIC assay, serial dilution; assay type: cell-based, Staphylococcus aureus; settings: for Selectivity index (CC50/MIC) S. aureus 6538P: CC50 Vero cells / MIC; for MIC: Staphylococcus aureus, ATCC 6538P / ATCC 6539P, read-out: MIC S. aureus ATCC 6539P
How it was run: as §1

MRSA USA-300 = assay type: cell-based, Staphylococcus aureus; settings: for log reduction in time-kill assay: after 24 h
Method: MRSA USA-300 was grown overnight in cation- adjusted Muell er-Hinton broth (CAMHB), then subcultured into fresh CAMHB and incubated aerobi cally at 37°C until reaching the logarithmic phase, corresponding to an optical density (OD₆₀₀) of 0.2. The bacterial cultures were further diluted to adjust to a final concentration of 5 × 10⁵ CFU/mL in CAMHB. P3, P5, vancomycin and linezolid, were added at concentrations of 5× and 10× MIC. A DMSO-treated […]
(§2) culture serv ed as an untreated control. The cultures were aerobically maintai ned at 37°C in shaking incubator. At specifi c sampling times, aliquots were collected, resuspended in phosphate-buffered saline (PBS) and distributed to three replicates on tryptic soy agar (TSA). After a 24-hour incubation period at 37°C, the number of colony- forming units (CFUs) was evaluated.
F i g u re S 1. Time kill results against MRSA USA 300 at 5X and 10X MIC. Compound P3 ( 38) is shown as red squares, compound P5( 40) is shown as green tri angles. Vancomycin (inverted purple triangle) is used as a b act ericidal control and linezolid (orange diamond) as a bacteriostatic control with DMSO (blue circles ) as a neg ative control. […]

MRSA NRS384 (USA300) = experiment: Multi-step resistance selection (serial passage); assay type: cell-based, Staphylococcus aureus; settings: 15 days of serial passaging; resistance = 4-fold shift in MIC
Method: as §2
F i g u re S 1. Time kill results against MRSA USA 300 at 5X and 10X MIC. Compound P3 ( 38) is shown as red squares, compound P5( 40) is shown as green tri angles. Vancomycin (inverted purple triangle) is used as a b act ericidal control and linezolid (orange diamond) as a bacteriostatic control with DMSO (blue circles ) as a neg ative control.
Multi-step resistance selection
To assess the ability of M R S A NRS384 (USA300) to develop resistance to P -NM and P-AM, a multi- step serial passage experiment was used, as described previously.4-6 MRSA strain was serially passaged with sub inhibitory concentrations of compounds and control drugs (Rifampicin and linezolid) in 1 5passages over a period of two weeks. Resistance was defined as a 4 -fold shift […]
F i g u re S 2.Multi -step resistance selection for blastimidine P3 ( 38) and blastimidine P5 (40) , rifampicin, and linezolid evaluated against methicillin -resistant S. aureus (MRSA) NRS384 (USA300) for 15days. […]

Pseudomonas aeruginosa = experiment: Antibacterial MIC assay, serial dilution; assay type: cell-based; settings: for MIC: Pseudomonas aeruginosa, range from biological replicates, read-out: MIC P. aeruginosa
How it was run: as §1

[1] = tested on: Acinetobacter baumannii ATCC 17978; experiment: Antibacterial MIC assay, serial dilution; assay type: cell-based; settings: ATCC17978, range from biological replicates
How it was run: as §1

[2] = tested on: Methicillin resistant S. aureus (MRSA) USA300; experiment: Antibacterial MIC assay, serial dilution; assay type: cell-based, Staphylococcus aureus; settings: for Selectivity index (CC50/MIC) MRSA USA300: CC50 Vero cells / MIC; for MIC: Staphylococcus aureus, read-out: MIC Methicillin resistant S. aureus (MRSA) USA300
[3] = tested on: Vancomycin resistant E. faecalis NR-31972 (VRE); experiment: Antibacterial MIC assay, serial dilution; assay type: cell-based, Enterococcus faecalis; settings: for Selectivity index (CC50/MIC) VRE NR-31972: CC50 Vero cells / MIC; for MIC: Enterococcus faecalis, VRE, 24 h, read-out: MIC Vancomycin resistant E. faecalis NR-31972 (VRE)
How it was run: as §1

Row | Compound | Selectivity index (CC50/MIC) MRSA 43300 (MRSA ATCC 43300) | MIC (MRSA ATCC 43300) | Selectivity index (CC50/MIC) S. aureus ΔNorA (S. aureus ΔNorA) | MIC (S. aureus ΔNorA) | Selectivity index (CC50/MIC) S. aureus 6538P (S. aureus ATCC 6538P) | MIC (S. aureus ATCC 6538P) | bacteriostatic or bactericidal effect in time-kill assay (MRSA USA-300; 5× MIC and 10× MIC) | log reduction in time-kill assay (MRSA USA-300; 5× MIC) | log reduction in time-kill assay (MRSA USA-300; 10× MIC) | resistance development on serial passaging (MRSA NRS384 (USA300)) | Selectivity index (CC50/MIC) P. aeruginosa (Pseudomonas aeruginosa; CC50 Vero cells / MIC) | MIC (Pseudomonas aeruginosa) | MIC [1] | Selectivity index (CC50/MIC) MRSA USA300 [2] | MIC [2] | Selectivity index (CC50/MIC) VRE NR-31972 [3] | MIC [3] | clearance in time-kill assay (MRSA USA-300; 5× MIC and 10× MIC, within 24 h)
1 | CNc1ccc(C(=O)Nc2ccn([C@H]3C=C[C@H](NC(=O)C[C@@H](N)CCN(C)C(=N)N)[C@@H](C(=O)NCCc4ccccc4)O3)c(=O)n2)cc1 [Blastimidine P3] | >3.0 | 64 to 128 µg/mL (≈ 97.2 to 194 µM) | >48 | 4 to 8 µg/mL (≈ 6.07 to 12.1 µM) | >12 | 16 to 32 µg/mL (≈ 24.3 to 48.6 µM) | bacteriostatic activity | 2.5 log | 2.7 log | did not produce a resistant phenotype | >3.0 | 64 to 128 µg/mL (≈ 97.2 to 194 µM) | > 128 µg/mL | >8.0 | 32 µg/mL (≈ 48.6 µM) | >16 | 16 µg/mL (≈ 24.3 µM) | 
2 | CN(CC[C@H](N)CC(=O)N[C@H]1C=C[C@H](n2ccc(NC(=O)c3ccc(NC(=O)[C@@](C)(N)CO)cc3)nc2=O)O[C@@H]1C(=O)NCCc1ccccc1)C(=N)N [Blastimidine P5] | >8.0 | 32 µg/mL (≈ 42.9 µM) | >16 | 16 µg/mL (≈ 21.5 µM) | >16 | 16 µg/mL (≈ 21.5 µM) | bactericidal activity |  |  | did not produce a resistant phenotype |  | > 128 µg/mL | > 128 µg/mL | >16 | 16 µg/mL (≈ 21.5 µM) | >8.0 | 32 µg/mL (≈ 42.9 µM) | complete clearance
